Blank lines part the entries; values can stand above or below the compound they belong to. The source made the active and inactive calls.
How the values were obtained:
Insulin-degrading enzyme [1] = molecular target: T1, Insulin-degrading enzyme (Homo sapiens, UniProt P14735); assay: activators of recombinant IDE enzyme, dose response, counter-screen for IDE activator project, biochemical, fluorescence polarization (AID 588681)
T1 sequence (P14735 whole entry): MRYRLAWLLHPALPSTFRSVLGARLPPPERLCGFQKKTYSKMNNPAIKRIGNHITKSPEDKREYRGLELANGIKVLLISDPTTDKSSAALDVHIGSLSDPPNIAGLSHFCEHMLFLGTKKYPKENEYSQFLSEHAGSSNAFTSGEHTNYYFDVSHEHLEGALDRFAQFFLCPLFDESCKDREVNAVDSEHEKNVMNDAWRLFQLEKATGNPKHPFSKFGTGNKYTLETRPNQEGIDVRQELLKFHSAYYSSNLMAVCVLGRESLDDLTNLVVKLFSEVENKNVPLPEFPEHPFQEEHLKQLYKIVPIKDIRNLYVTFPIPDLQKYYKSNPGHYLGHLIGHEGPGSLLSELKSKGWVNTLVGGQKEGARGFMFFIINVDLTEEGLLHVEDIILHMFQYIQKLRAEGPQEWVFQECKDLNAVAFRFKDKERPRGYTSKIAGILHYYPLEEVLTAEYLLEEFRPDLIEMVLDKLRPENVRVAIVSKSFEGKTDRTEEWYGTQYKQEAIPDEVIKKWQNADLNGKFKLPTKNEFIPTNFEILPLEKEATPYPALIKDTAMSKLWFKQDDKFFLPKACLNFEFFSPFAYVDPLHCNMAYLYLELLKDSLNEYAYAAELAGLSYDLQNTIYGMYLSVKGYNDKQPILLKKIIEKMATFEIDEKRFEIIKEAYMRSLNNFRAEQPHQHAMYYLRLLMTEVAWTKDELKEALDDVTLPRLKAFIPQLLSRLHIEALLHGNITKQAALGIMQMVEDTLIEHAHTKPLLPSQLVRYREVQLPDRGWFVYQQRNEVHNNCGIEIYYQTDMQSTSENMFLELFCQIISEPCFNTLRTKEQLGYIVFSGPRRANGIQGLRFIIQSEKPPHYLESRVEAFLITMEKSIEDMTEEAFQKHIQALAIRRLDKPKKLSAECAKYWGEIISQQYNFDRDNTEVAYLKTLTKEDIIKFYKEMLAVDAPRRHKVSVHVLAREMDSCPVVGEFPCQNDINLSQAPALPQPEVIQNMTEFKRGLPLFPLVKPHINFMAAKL

HEK293 [2] = assay: HEK cell cytotoxicity by LDH release, dose response, cytotoxicity control for IDE activator project, fluorescence, HEK cells (AID 588440); format: functional, cell-based; conditions: Homo sapiens;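 also: cytotoxicity by LDH release measuring loss of membrane integrity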
Insulin-degrading enzyme [3] = molecular target: T1, Insulin-degrading enzyme; assay: activators of endogenous IDE in HEK cells, dose response, cell-based, fluorescence polarization (AID 588439); format: functional
HEK293 [4] = assay: optical interference in Abeta FP readout, dose response, artefact control for IDE activator project, biochemical, fluorescence polarization (AID 588442); format: functional, cell-based; conditions: Homo sapiens
HEK293 [5] = assay: cells; conditions: Homo sapiens
[6] = C. albicans growth with fluconazole, confirmation, fluorescence, retest (AID 2467); format: functional, cell-based
[7] = NIH-3T3 fibroblast cytotoxicity, dose response, cytotoxicity control, cell-based, fluorescence, Alamar Blue, secondary assay (AID 2327); format: functional;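 also: NIH-3T3 mouse fibroblasts cultured with fluconazole at 8 µg/mL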
HEK293 [8] = assay: cells; conditions: Homo sapiens; remark: listed apart in the source
cells [9] = format: functional, cell-based
cells [10] = format: functional, cell-based; remark: listed apart in the source
[11] = molecular target: T2, Sentrin-specific protease 8 (Homo sapiens, UniProt Q96LD8); format: functional;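 also: luminescence read-out of SENP8 inhibition, dose-response confirmation following an ultra-high-throughput screen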
T2 sequence (Q96LD8 whole entry): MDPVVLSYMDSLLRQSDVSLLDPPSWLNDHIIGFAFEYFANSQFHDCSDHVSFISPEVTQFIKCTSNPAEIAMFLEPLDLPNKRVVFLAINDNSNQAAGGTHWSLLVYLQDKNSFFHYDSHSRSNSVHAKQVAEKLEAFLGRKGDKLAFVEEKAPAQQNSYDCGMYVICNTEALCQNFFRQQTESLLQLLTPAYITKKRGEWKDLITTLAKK

[12] = molecular target: T3, Sentrin-specific protease 6 (Homo sapiens, UniProt Q9GZR1); format: functional;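 also: Luminescence-based dose-response confirmatory assay of SENP6 inhibition, following up an ultra-high-throughput screen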
T3 sequence (Q9GZR1 whole entry): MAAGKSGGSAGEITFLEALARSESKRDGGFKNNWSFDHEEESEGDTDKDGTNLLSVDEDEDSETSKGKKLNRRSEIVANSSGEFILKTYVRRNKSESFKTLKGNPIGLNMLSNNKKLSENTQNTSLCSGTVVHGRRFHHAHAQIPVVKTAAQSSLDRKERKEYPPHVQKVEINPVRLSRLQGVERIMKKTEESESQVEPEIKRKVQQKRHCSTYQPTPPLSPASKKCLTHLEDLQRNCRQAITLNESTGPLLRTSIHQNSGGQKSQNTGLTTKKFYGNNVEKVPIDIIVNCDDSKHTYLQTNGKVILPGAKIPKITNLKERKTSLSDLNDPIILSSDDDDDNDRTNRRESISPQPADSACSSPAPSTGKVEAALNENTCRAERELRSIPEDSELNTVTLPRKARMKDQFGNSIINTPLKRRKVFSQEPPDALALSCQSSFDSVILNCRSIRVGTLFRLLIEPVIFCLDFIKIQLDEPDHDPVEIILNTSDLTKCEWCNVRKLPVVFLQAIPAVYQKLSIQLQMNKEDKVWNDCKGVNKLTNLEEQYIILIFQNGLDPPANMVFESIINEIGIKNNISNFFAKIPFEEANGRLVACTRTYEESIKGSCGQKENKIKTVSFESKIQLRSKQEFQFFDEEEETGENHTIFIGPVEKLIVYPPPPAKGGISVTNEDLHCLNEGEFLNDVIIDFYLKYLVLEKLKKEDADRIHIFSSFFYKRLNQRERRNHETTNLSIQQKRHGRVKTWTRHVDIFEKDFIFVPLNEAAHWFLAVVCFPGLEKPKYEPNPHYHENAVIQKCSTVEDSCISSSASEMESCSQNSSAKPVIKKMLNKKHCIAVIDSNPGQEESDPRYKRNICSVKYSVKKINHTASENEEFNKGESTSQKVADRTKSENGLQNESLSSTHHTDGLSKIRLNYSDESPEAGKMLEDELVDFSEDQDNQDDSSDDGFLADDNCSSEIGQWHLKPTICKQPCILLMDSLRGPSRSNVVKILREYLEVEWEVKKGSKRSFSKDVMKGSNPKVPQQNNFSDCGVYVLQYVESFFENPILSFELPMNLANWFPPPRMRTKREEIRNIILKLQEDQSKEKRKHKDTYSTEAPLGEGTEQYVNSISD

[13] = molecular target: T4, Sentrin-specific protease 7 (Homo sapiens, UniProt Q9BQF6); format: functional;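 also: Luminescence-based dose-response confirmation of ultra-high-throughput screening hits, measuring inhibition of SENP7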
T4 sequence (Q9BQF6 whole entry): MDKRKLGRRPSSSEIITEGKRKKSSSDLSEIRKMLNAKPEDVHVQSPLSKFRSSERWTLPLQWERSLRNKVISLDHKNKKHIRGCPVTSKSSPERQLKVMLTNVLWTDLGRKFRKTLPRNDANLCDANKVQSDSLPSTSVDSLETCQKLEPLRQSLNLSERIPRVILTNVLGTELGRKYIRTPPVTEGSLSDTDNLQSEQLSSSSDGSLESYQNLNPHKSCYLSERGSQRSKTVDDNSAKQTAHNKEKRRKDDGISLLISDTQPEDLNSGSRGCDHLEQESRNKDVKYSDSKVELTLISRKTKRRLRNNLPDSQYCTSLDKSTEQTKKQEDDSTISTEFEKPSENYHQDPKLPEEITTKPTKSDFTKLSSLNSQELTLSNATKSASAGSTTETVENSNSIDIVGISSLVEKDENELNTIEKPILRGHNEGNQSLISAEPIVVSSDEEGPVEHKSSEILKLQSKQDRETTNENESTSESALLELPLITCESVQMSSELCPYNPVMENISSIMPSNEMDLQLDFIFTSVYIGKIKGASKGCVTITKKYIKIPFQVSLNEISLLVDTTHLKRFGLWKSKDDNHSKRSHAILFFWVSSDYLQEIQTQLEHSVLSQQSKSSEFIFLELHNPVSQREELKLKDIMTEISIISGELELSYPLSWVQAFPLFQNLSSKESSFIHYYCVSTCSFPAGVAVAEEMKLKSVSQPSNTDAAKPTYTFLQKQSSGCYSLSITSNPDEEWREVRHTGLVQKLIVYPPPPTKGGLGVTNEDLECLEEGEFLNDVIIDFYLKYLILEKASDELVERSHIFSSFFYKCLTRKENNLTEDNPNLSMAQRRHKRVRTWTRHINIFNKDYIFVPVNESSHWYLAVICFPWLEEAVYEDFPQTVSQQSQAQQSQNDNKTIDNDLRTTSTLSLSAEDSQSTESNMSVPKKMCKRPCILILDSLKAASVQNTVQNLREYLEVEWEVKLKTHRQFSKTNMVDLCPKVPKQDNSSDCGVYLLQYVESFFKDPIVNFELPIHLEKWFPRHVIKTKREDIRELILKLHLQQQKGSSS

[14] = molecular target: T5, Short transient receptor potential channel 4 (Mus musculus, UniProt Q9QUQ5); assay: mouse TRPC4 channel activators, dose response, cell-based, HEK293 TRPC4/mu-opioid, Fluo-4 calcium (AID 434937); format: functional
T5 sequence (Q9QUQ5 whole entry): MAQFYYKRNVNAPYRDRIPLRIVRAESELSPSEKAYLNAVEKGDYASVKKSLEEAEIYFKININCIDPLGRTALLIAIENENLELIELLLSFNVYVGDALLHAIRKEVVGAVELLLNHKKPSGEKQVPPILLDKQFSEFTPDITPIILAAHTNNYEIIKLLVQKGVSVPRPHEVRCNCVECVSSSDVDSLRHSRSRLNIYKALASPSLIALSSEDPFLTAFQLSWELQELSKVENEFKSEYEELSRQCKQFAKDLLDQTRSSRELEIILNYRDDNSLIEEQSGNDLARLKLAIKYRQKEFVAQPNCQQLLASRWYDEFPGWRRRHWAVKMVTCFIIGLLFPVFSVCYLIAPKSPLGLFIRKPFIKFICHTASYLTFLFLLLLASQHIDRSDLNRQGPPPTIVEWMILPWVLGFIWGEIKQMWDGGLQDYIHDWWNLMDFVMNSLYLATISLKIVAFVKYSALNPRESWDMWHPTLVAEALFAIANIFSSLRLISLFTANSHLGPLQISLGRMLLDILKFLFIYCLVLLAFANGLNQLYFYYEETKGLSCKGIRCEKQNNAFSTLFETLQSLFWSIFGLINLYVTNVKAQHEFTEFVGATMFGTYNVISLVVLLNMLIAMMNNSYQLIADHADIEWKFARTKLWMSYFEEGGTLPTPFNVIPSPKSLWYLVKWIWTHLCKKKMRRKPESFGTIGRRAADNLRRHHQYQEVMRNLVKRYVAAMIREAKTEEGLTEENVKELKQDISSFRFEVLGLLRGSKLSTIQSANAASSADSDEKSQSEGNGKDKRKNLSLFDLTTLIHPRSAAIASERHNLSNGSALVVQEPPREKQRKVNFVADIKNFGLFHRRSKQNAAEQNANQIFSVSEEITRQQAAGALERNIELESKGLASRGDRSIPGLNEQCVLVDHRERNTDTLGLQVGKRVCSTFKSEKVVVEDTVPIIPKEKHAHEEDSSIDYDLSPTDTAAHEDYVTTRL

Compound: COc1ccc(OC)c(C(=O)COC(=O)CN2C(=O)NC3(CCCCC3C)C2=O)c1 (stereo not given)
EC50 (Insulin-degrading enzyme [1]): > 54.7 µM (inactive)
IC50 (HEK293 [2]): > 89.2 µM (inactive)
EC50 (Insulin-degrading enzyme [3]): > 54.7 µM (inactive)
EC50 (HEK293 [4]): > 55.9 µM (inactive)

Compound: Fc1cccc(-n2cc(-c3ccccc3)c3c(S)ncnc32)c1
EC50 (HEK293 [5]): > 59.6 µM (inactive)
EC50 [6]: 8.62 µM (active)
EC50 [7]: > 150 µM (inactive)
EC50 (HEK293 [8]): > 59.6 µM (inactive)

Compound: COC(=O)C1=C(C)N(C)C(=O)NC1c1cc(Cl)c(O)c(OC)c1 (stereo not given)
EC50 (cells [9]): > 350 µM (not active)
EC50 (HEK293 [5]): > 59.6 µM (inactive)
EC50 (cells [10]): > 350 µM (not active)
EC50 (HEK293 [8]): > 59.6 µM (inactive)

IC50 [12]: 28 µM (active)
IC50 [13]: 5.98 µM (active)
Compound: COc1ccc(C(N)=NOC(=O)CSc2ccccc2)cc1
IC50 [11]: 12.8 µM (active)

Compound: Nc1cc(N)nc(SCCOc2ccccc2)n1
EC50 (Insulin-degrading enzyme [1]): > 54.7 µM (inactive)
IC50 (HEK293 [2]): > 89.2 µM (inactive)
EC50 (Insulin-degrading enzyme [3]): > 54.7 µM (inactive)
EC50 (HEK293 [4]): > 55.9 µM (inactive)

Compound: CN(C)C(CNC(=O)CSc1nc2sc3c(c2c(=O)n1C)CCCC3)c1ccccc1 (stereo not given)
EC50 (HEK293 [5]): > 59.6 µM (inactive)
EC50 (HEK293 [8]): > 59.6 µM (inactive)

EC50 [14]: 4.73 µM (active)
Compound: COc1cccc(CN2CCNC(=O)C2CC(=O)N(C)CCc2ccccn2)c1 (stereo not given)

EC50 [14]: 1.5 µM (active)
Compound: OCCNCCSc1ccc(Cl)cc1

Compound: COc1ccc(CCN(C)c2ccc(S(=O)(=O)N3CCCC3)cc2[N+](=O)[O-])cc1OC
EC50 (HEK293 [5]): > 59.7 µM (inactive)
EC50 (HEK293 [8]): > 59.7 µM (inactive)
